Experimental data: EP0682649B1, “DEUTERATED SEVOFLURANE AS AN INHALATIONAL ANESTHETIC” (UNIVERSITY OF IOWA RESEARCH FOUNDATION, priority 1993, dated 1994)
Read-outs that look alike come from different tables or passages of the source. Values belong to the compound of their own block, whether it stands above or below them.

How the values were obtained:
[1] = cited from earlier work; for metabolism and defluorination relative to the undeuterated compound: U.S. Patent 4,154,971, U.S. Patent 4,153,636
[2] = cited from earlier work
mice = conditions: cited from earlier work
Male Sprague-Dawley rats = test: Induction of anesthesia in exposure chamber at 3% anesthetic; assay type: in vivo; conditions: initial concentration 3% anesthetic in 100% oxygen, 3.8 L chamber
Experimental: (§1) The animals were exposed in a 3.8 L plastic exposure chamber with an atmosphere of 100% oxygen. Male Sprague-Dawley rats (200-220g, 4 per group) were placed in the chamber and the chamber was flushed with oxygen and sealed. Anesthetic was introduced into the chamber in liquid form via an injection port. Quantities were introduced to give initial concentrations of 3% anesthetic (enflurane, 464 µl; sevoflurane and D2-sevoflurane, 524 µl). The rats became anesthetized within 4-6 minutes after introduction of each anesthetic. Oxygen and carbon dioxide were monitored periodically during the exposure period with an Ohmeda 6000 multi-gas monitor.

rat liver microsomes = assay type: in vitro ADME, male Sprague-Dawley rats; conditions: for defluorination by rat liver microsomes, nmol F^- /mg protein/30 min ± S.E.: 1 µl anesthetic per incubation, mean and standard error of triplicate determinations; for percent decline from sevoflurane values (degree of inhibited metabolism): following correction for background (0.43)
Experimental: The metabolism of D2-sevoflurane is expected to liberate one fluoride ion for each molecule metabolized by cytochrome P450 since the metabolism of sevoflurane liberates fluoride and hexafluoroisopropanol. To determine the metabolism of D2-sevoflurane relative to sevoflurane and enflurane, these anesthetics were incubated with hepatic microsomes from untreated male Sprague-Dawley rats (200-230g), or rats treated with isoniazid (80mg/kg, i.p. for 5 days), or phenobarbital (0.2% in the drinking water for 4 days). Isoniazid induces the cytochrome P450 isozyme P450 2E1 which is thought to metabolize the volatile anesthetics, and phenobarbital induces several forms also shown to play a role in anesthetic metabolism in the rat.
Each incubation vial (6 ml plastic vial) contained 3 ml of 5 mg/ml microsomal protein in a 0.1 M sodium phosphate buffer, pH 7.4. An NADPH generating system was added to cytochrome P450 activity, and the NADPH generating system was omitted from control incubations. […] Reactions were stopped by placing the vials on ice. Fluoride was assayed in the microsomal mixtures using fluoride ion-specific electrodes (Fisher Scientific) and a 720A Orion pH/ISE meter. Following incubation microsomes were mixed with an equal volume of TISABII buffer for fluoride analysis. Fluoride in each sample was determined from standard curves constructed using fluoride standards (10^-7 to 10^-3 M NaF) prepared from a commercially available standard solution (10^-1 M NaF).

[3] = Incubations with soda lime in static systems; assay type: physicochemical; conditions: for degradation products with soda lime: static system
[4] = In vivo metabolism: plasma fluoride after 30 minute inhalation exposure; parameters: species or system Male Sprague-Dawley rats; conditions: 30 minute exposure, 3% anesthetic
From the text: Untreated rats or rats treated with isoniazid or phenobarbital were exposed to D2-sevoflurane, sevoflurane, or enflurane to determine the relative rates of fluoride production in vivo.
as §1
Following a 30 minute exposure period, the chamber was flushed with 100% oxygen for 5 minutes and the animals rapidly awakened. The rats were immediately removed and injected i.p. with 80 mg/kg secobarbital. While anesthetized 3 to 4 ml of blood were withdrawn by cardiac puncture within 15 minutes of termination of anesthetic exposure (within 10 minutes of removal from the chamber). Plasma was prepared and fluoride analyzed as described above.

[5] = Breakdown by soda lime in an anesthesia circuit (gas chromatography); assay type: physicochemical; conditions: for production of volatile degradation by-products: soda lime temperature maintained in the range of 4°C to 27°C
Experimental: An anesthesia circuit containing fresh soda lime (1.5 kg) was set up with an anesthesia machine (Foregger F 500). […] The gases were re-circulated at a total circuit flow rate of 1.5 liters per minute (a relatively low clinical total flow rate) in a closed system with a respirator. Carbon dioxide was added to the circuit at a constant rate of 200 ml per minute. This set up the conditions for "worst case" breakdown of sevoflurane by soda lime.
Experiments were conducted at exothermic temperature versus with the soda lime canister immersed in an ice bath. […] Products were continually detected for the remainder of the experiments (up to eight hours) by gas chromatography.

[6] = cited from earlier work; remark: listed apart in the source
[7] = Animal Treatment: Phenobarbital

SMILES: [2H]C(F)(Cl)C(F)(F)OC(F)F (stereo not drawn) [1,1,2-trifluoro-2-chloro-2-deuteroethyl-difluoromethyl ether]
- metabolism and defluorination relative to the undeuterated compound [1]: slower metabolism and thus slower defluorination

SMILES: [2H]C(F)(Br)C(F)(F)OC(F)F (stereo not drawn) [1,1,2-trifluroro-2-bromo-2-deuteroethyl difluoromethyl ether]
- metabolism and defluorination relative to the undeuterated compound [1]: slower metabolism and thus slower defluorination

SMILES: [2H]C(Cl)(Cl)C(F)(F)OC [1,1-difluoro-2,2-dichloro-2-deuteroethyl methyl ether]
- metabolism and defluorination relative to the undeuterated compound [1]: more readily metabolized into inorganic fluoride than the undeuterated compound
- metabolism and defluorination relative to the undeuterated compound ([1]; listed as 1,1 difluoro-2-2-dichloro-2-deuteroethyl methyl ether): increase inorganic fluoride release

SMILES: [2H]C(Cl)(Cl)C(F)(F)OC(F)F [1,1-difluoro-2-deutero-2,2-dichloroethyl difluoromethyl ether]
- metabolism and defluorination relative to the undeuterated compound [1]: slower metabolism and thus slower defluorination

SMILES: [2H]C([2H])([2H])OC(F)(F)C(Cl)Cl [2,2-dichloro-1,1-difluoro-1-methoxy-D3-ethane]
- metabolism and defluorination relative to the undeuterated compound [1]: decreased metabolism

SMILES: FC(F)OC(F)(C(F)F)C(F)F [(CHF2)2CF-O-CHF2]
- anesthetic properties ([2]; in vivo): weak anesthetic in which deep anesthesia is not obtained
- electro-encephalographic and convulsant activity ([2]; in vivo): abnormal electro-encephalographic and convulsant activity is observed

SMILES: COC(F)(C(F)(F)F)C(F)(F)F [CH3OCF(CF3)2]
- non-anesthetic up to (concentration) ([2]; U.S. Patent 3,683,092): > 8 % by volume in oxygen

SMILES: FC(F)OCC(F)(F)C(F)(F)F [CHF2OCH2CF2CF3]
- convulsions (mice): produces convulsions
- anesthetic properties ([2]; in vivo): non-anesthetic up to its lethal concentration

SMILES: [2H]C([2H])(F)OC(C(F)(F)F)C(F)(F)F [D2-sevoflurane, fluoro-dideutero-methyl-1,1,1,3,3,3,-hexafluoro-2-propyl ether]
- time until rats became anesthetized after introduction of anesthetic (Male Sprague-Dawley rats): 4 to 6 min
- defluorination by rat liver microsomes, nmol F^- /mg protein/30 min ± S.E. (rat liver microsomes; Animal Treatment: Isoniazid): 1.55 ± 0.39 nmol F^- /mg protein/30 min
- defluorination by rat liver microsomes, nmol F^- /mg protein/30 min ± S.E. (rat liver microsomes; Animal Treatment: None): 0.62 ± 0.60 nmol F^- /mg protein/30 min
- defluorination by rat liver microsomes, nmol F^- /mg protein/30 min ± S.E. (rat liver microsomes; [7]): 0.18 ± 0.03 nmol F^- /mg protein/30 min
- percent decline from sevoflurane values (degree of inhibited metabolism) (rat liver microsomes; microsomes from isoniazid treated rats): 79%
- defluorinated slower than sevoflurane (% less) (rat liver microsomes; microsomes from phenobarbital and isoniazid treated rats, over a wide range of anesthetic concentrations (figures 1 and 2)): 70-86%
- percent decline from sevoflurane values (degree of inhibited metabolism) (rat liver microsomes; microsomes from phenobarbital treated rats): 84%
- percent decline from sevoflurane values (degree of inhibited metabolism) (rat liver microsomes; microsomes from untreated rats): 68%
- degradation with soda lime, compared with sevoflurane ([3]; similar experiments to those run with sevoflurane): essentially the same
- plasma fluoride liberated, % less than sevoflurane ([4]; isoniazid treated rats): 61%
- plasma fluoride, % less than enflurane anesthetized animals ([4]; isoniazid treated rats): 80%
- plasma fluoride liberated, % less than sevoflurane ([4]; phenobarbital treated animals): 66%
- plasma fluoride, % less than enflurane anesthetized animals ([4]; phenobarbital treated rats): 45%
- plasma fluoride liberated, % less than sevoflurane ([4]; untreated rats): 34%
- plasma fluoride, % less than enflurane anesthetized animals ([4]; untreated rats): 40%
- production of volatile degradation by-products [5]: virtually insignificant levels

SMILES: [2H]C(Cl)(Br)C(F)(F)F (stereo not drawn) [Deuterated Halothane]
- effect of deuteration on metabolism ([1]; Sipes et al., J. Pharmacol. Exp. Ther. 214: 716-720, 1980): inhibits its metabolism to trifluoroacetic acid, but not its metabolism to release fluoride

- defluorination by rat liver microsomes, nmol F^- /mg protein/30 min ± S.E. (rat liver microsomes; [7]): 1.18 ± 0.06 nmol F^- /mg protein/30 min
- time after circuit start at which degradation products were detected ([5]; exothermic temperature, soda lime core 44°C to 47°C, initial concentration 2.7%, flow 1.5 liters per minute): about 1.5 hours
- degradation products detected ([5]; soda lime canister in ice bath, core 22°C to 27°C, run up to eight hours): no degradation products were detected
- production of volatile degradation by-products [5]: virtually insignificant levels
SMILES: FCOC(C(F)(F)F)C(F)(F)F [Sevoflurane, fluoromethyl-1,1,1,3,3,3-hexafluoro-2-propyl ether]
- time until rats became anesthetized after introduction of anesthetic (Male Sprague-Dawley rats): 4 to 6 min
- lower flammability limit in oxygen [6]: about 11.8 volume percent
- degradation products with soda lime ([3]; 22°C): some degradation products including "Compound A" were detected
- degradation products with soda lime ([3]; 45°C): substantial degradation products, including "Compound A", were produced

SMILES: FC(F)OC(F)(F)C(F)Cl (stereo not drawn) [enflurane]
- time until rats became anesthetized after introduction of anesthetic (Male Sprague-Dawley rats): 4 to 6 min
- anesthetic concentration-dependent inhibition of metabolism (rat liver microsomes; microsomes from isoniazid treated rats (figure 1)): anesthetic concentration-dependent inhibition of metabolism

SMILES: FC(F)C(F)(F)COC(F)(F)F [trifluoromethyl-2,2,3,3-tetrafluoropropyl ether]
- concentration causing violent convulsions and death (as low as) (mice): .5%
